Like-named read-outs stand apart in the source and are kept apart here.
Columns and labels:
human ALK2 R206H = biological target: T1, human ALK2 R206H (Homo sapiens, UniProt Q04771, R206H); assay: Cell-based ALK2-R206H cell activity assay (Smad1-Ser463/Ser465 phosphorylation by AlphaLISA in HEK293-ALK2-R206H cells)
T1 construct: expressed in transfected cells; host or cells: HEK293 (ATCC CRL1573), lentivirus transduction, blasticidin selection
T1 sequence (Q04771 21-509 R206H): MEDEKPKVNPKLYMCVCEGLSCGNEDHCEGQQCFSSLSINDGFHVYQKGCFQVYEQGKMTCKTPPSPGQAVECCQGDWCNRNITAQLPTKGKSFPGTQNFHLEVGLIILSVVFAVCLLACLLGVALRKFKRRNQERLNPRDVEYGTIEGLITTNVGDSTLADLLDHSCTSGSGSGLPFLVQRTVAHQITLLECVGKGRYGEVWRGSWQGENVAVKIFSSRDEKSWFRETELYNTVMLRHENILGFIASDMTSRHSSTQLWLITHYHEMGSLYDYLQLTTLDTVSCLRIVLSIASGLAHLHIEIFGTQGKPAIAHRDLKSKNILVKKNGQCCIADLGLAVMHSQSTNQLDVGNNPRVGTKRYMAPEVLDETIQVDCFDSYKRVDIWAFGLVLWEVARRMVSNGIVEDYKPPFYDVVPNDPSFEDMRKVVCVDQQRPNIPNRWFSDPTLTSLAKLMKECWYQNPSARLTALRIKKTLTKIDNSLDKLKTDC
How it was run: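 Stable HEK293 cells expressing C-terminally FLAG-tagged human ALK2 R206H (lentiviral, blasticidin-selected) were treated with compounds in 10-point, 3-fold dilutions from 10 μM or 1 μM top, in duplicate. Smad1 Ser463/Ser465 phosphorylation was read by AlphaLISA.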

[1] = biological target: T2, ALK2 R206H (GST-tagged mutant ALK2) (Homo sapiens, UniProt Q04771, R206H); assay: ALK binding assay (LANTHASCREEN TR-FRET competitive binding, displacement of Kinase Tracer 178)
T2 construct: purchased Carna Bioscience or ThermoFisher 09-148 or PV6232
T2 sequence (Q04771 21-509 R206H): T1 sequence (Q04771 21-509 R206H)

[2] = read-out: Cell Line (Cell Assay IC50)
[3] = ALK2 R206H, LANTHASCREEN TR-FRET competitive binding, read-out: Binding Assay (IC50)

IC50 (human ALK2 R206H; [2])	IC50 [1, 3]	IC50 (human ALK2 R206H; Cell Line (Cell Assay IC50))	IC50 [1]	Compound
< 100 nM	< 10 nM	–	–	CC(N)(CO)c1ccc(-c2cc3c(N4CCN(C(=O)OC5COC5)CC4)ccnn3c2)cc1 (centres unmarked) [Compound 771]
100 to 500 nM	< 10 nM	–	–	O=C(OC1COC1)N1CCN(c2ccnn3cc(-c4ccc(C5CCNCC5)cc4)cc23)CC1 [Compound 773]
< 100 nM	< 10 nM	–	–	O=C(OC1COC1)N1CCN(c2ccnn3cc(-c4ccc([C@@H]5CCCNC5)cc4)cc23)CC1 [Compound 774]
< 100 nM	< 10 nM	–	–	O=C(OC1COC1)N1CCN(c2ccnn3cc(-c4ccc(N5CCNCC5)cc4)cc23)CC1 [Compound 775]
< 100 nM	< 10 nM	–	–	CC(C)(O)C(N)c1ccc(-c2cc3c(N4CCN(C(=O)OC5COC5)CC4)ccnn3c2)cc1 (centres unmarked) [Compound 779]
< 100 nM	< 10 nM	–	–	CCN[C@@H](CO)c1ccc(-c2cc3c(N4CCN(C(=O)OC5COC5)CC4)ccnn3c2)cc1 [Compound 780]
< 100 nM	< 10 nM	–	–	CC(C)N[C@H](CO)c1ccc(-c2cc3c(N4CCN(C(=O)OC5COC5)CC4)ccnn3c2)cc1 [Compound 791]
< 100 nM	< 10 nM	–	–	CC(C)N[C@@H](CO)c1ccc(-c2cc3c(N4CCN(C(=O)OC5COC5)CC4)ccnn3c2)cc1 [Compound 792]
< 100 nM	< 10 nM	–	–	CC(C)N1CCC(c2ccc(-c3cc4c(N5CCN(C(=O)OC6CC6)CC5)ccnn4c3)cc2)CC1 [Compound 795]
< 100 nM	< 10 nM	–	–	COC1(c2ccc(-c3cc4c(N5CCN(C(=O)OC6COC6)CC5)ccnn4c3)cc2)CCOCC1 [Compound 799]
< 100 nM	< 10 nM	–	–	CC(C)NC(C)(CO)c1ccc(-c2cc3c(N4CCN(C(=O)OC5COC5)CC4)ccnn3c2)cc1 (centres unmarked) [Compound 804]
< 100 nM	< 10 nM	–	–	CCN(CC)[C@@H](CO)c1ccc(-c2cc3c(N4CCN(C(=O)OC5COC5)CC4)ccnn3c2)cc1 [Compound 805]
< 100 nM	< 10 nM	–	–	[2H]C1(OC(=O)N2CCN(c3ccnn4cc(-c5ccc(C6CCN(C(C)C)CC6)cc5)cc34)CC2)COC1 [Compound 814]
< 100 nM	< 10 nM	–	–	CCO[C@]1(c2ccc(-c3cc4c(N5CCN(C(=O)OC6COC6)CC5)ccnn4c3)cc2)CCCNC1 [Compound 815]
< 100 nM	< 10 nM	–	–	CCO[C@@]1(c2ccc(-c3cc4c(N5CCN(C(=O)OC6COC6)CC5)ccnn4c3)cc2)CCCNC1 [Compound 816]
100 to 500 nM	< 10 nM	–	–	CC(C)N1CCC[C@@H](c2ccc(-c3cc4c(N5CCN(C(=O)O[C@@H]6CCOC6)CC5)ccnn4c3)cc2)C1 [Compound 825]
< 100 nM	< 10 nM	–	–	CC(C)N1CCC[C@@H](c2ccc(-c3cc4c(N5CCN(C(=O)O[C@H]6CCOC6)CC5)ccnn4c3)cc2)C1 [Compound 826]

More lines, now with the values behind:

Compound	IC50 (human ALK2 R206H; [2])	IC50 [1, 3]	IC50 (human ALK2 R206H; Cell Line (Cell Assay IC50))	IC50 [1]
CC(C)N[C@@H](CO)c1ccc(-c2cc3c(N4CCN(C(=O)C5CC5)CC4)ccnn3c2)cc1 [Compound 770]	< 100 nM	< 10 nM	–	–
O=C(OC1COC1)N1CCN(c2ccnn3cc(-c4ccc(N5CCNCC5)cn4)cc23)CC1 [Compound 776]	< 100 nM	< 10 nM	–	–
CCOC(=O)N1CCN(c2ccnn3cc(-c4ccc([C@]5(OC)CCCNC5)cc4)cc23)CC1 [Compound 777]	< 100 nM	< 10 nM	–	–
CCOC(=O)N1CCN(c2ccnn3cc(-c4ccc([C@@]5(OC)CCCNC5)cn4)cc23)CC1 [Compound 778]	< 100 nM	< 10 nM	–	–
CCOC(=O)N1CCN(c2ccnn3cc(-c4ccc([C@@]5(OCC)CCCNC5)cc4)cc23)CC1 [Compound 782]	< 100 nM	< 10 nM	–	–
CCOC(=O)N1CCN(c2ccnn3cc(-c4ccc([C@]5(OCC)CCCNC5)cc4)cc23)CC1 [Compound 783]	< 100 nM	< 10 nM	–	–
CO[C@]1(c2ccc(-c3cc4c(N5CCN(C(=O)NC(C)C)CC5)ccnn4c3)nc2)CCCNC1 [Compound 784]	< 100 nM	< 10 nM	–	–
COC1(c2ccc(-c3cc4c(N5CCN(C(=O)NC(C)C)CC5)ccnn4c3)nc2)CCNCC1 [Compound 785]	100 to 500 nM	< 10 nM	–	–
CO[C@@]1(c2ccc(-c3cc4c(N5CCN(C(=O)NC(C)C)CC5)ccnn4c3)nc2)CCCNC1 [Compound 786]	< 100 nM	< 10 nM	–	–
CCOC(=O)N1CCN(c2ccnn3cc(-c4ccc([C@]5(OCC)CCCNC5)cn4)cc23)CC1 [Compound 787]	< 100 nM	< 10 nM	–	–
CCOC(=O)N1CCN(c2ccnn3cc(-c4ccc([C@@]5(OCC)CCCNC5)cn4)cc23)CC1 [Compound 788]	< 100 nM	< 10 nM	–	–
O=C(OC(CO)CO)N1CCN(c2ccnn3cc(-c4ccc(C5CCNCC5)cc4)cc23)CC1 [Compound 789, 1,3-dihydroxypropan-2-yl 4-(6-(4-(piperidin-4-yl)phenyl)pyrrolo[1,2-b]pyridazin-4-yl)piperazine-1-carboxylate]	> 500 nM	< 10 nM	–	–
[2H]C([2H])([2H])C([2H])([2H])OC(=O)N1CCN(c2ccnn3cc(-c4ccc([C@@]5(OCC)CCCNC5)cn4)cc23)CC1 [Compound 793]	< 100 nM	< 10 nM	–	–
[2H]C([2H])([2H])C([2H])([2H])OC(=O)N1CCN(c2ccnn3cc(-c4ccc([C@]5(OCC)CCCNC5)cn4)cc23)CC1 [Compound 794]	< 100 nM	< 10 nM	–	–
CCOC(=O)N1CCN(c2ccnn3cc(-c4ccc([C@]5(OC)CCCNC5)cn4)cc23)CC1 [Compound 796]	< 100 nM	< 10 nM	–	–
CCO[C@@]1(c2ccc(-c3cc4c(N5CCN(C(=O)NC(C)C)CC5)ccnn4c3)nc2)CCCNC1 [Compound 797]	< 100 nM	< 10 nM	–	–
CCO[C@]1(c2ccc(-c3cc4c(N5CCN(C(=O)NC(C)C)CC5)ccnn4c3)nc2)CCCNC1 [Compound 798]	< 100 nM	< 10 nM	–	–
CO[C@]1(c2ccc(-c3cc4c(N5CCN(C(=O)OC6COC6)CC5)ccnn4c3)nc2)CCCNC1 [Compound 800]	< 100 nM	< 10 nM	–	–

Compound	IC50 (human ALK2 R206H; [2])	IC50 [1, 3]	IC50 (human ALK2 R206H; Cell Line (Cell Assay IC50))	IC50 [1]
CO[C@@]1(c2ccc(-c3cc4c(N5CCN(C(=O)OC6COC6)CC5)ccnn4c3)nc2)CCCNC1 [Compound 801]	< 100 nM	< 10 nM	–	–
CCOC(=O)N1CCN(c2ccnn3cc(-c4ccc(C5(OC)CCNC(C)(C)C5)cn4)cc23)CC1 (centres unmarked) [Compound 802]	< 100 nM	< 10 nM	–	–
O=C(C1CC1)N1CCN(c2ccnn3cc(-c4ccc(C5(C(F)(F)F)CCNCC5)cc4)cc23)CC1 [Compound 808]	< 100 nM	< 10 nM	–	–
CO[C@@]1(c2ccc(-c3cc4c(N5CCN(C(=O)[C@H]6C[C@H](C#N)C6)CC5)ccnn4c3)cc2)CCCNC1 [Compound 809]	< 100 nM	< 10 nM	–	–
CC(C)N1CCC[C@@H](c2ccc(-c3cc4c(N5CCN(C(=O)OCCC#N)CC5)ccnn4c3)cc2)C1 [Compound 810]	< 100 nM	< 10 nM	–	–
CC(C)N1CCC(CO)(c2ccc(-c3cc4c(N5CCN(C(=O)C6CC6)CC5)ccnn4c3)cc2)CC1 [Compound 811]	< 100 nM	< 10 nM	–	–
CC(C)N1CCC(c2ccc(-c3cc4c(N5CCN(C(=O)C6CCOC6)CC5)ccnn4c3)cc2)CC1 (centres unmarked) [Compound 812]	100 to 500 nM	< 10 nM	–	–
CC1(C)CC(O)(c2ccc(-c3cc4c(N5CCN(C(=O)C6CC6)CC5)ccnn4c3)cc2)CC(C)(C)N1 [Compound 813]	–	–	< 100 nM	< 10 nM
COC1(c2ccc(-c3cc4c(N5CCN(C(=O)NC(C)C)CC5)ccnn4c3)nc2)CCNC(C)(C)C1 (centres unmarked) [Compound 817]	< 100 nM	< 10 nM	–	–
CCO[C@]1(c2ccc(-c3cc4c(N5CCN(C(=O)OC6COC6)CC5)ccnn4c3)nc2)CCCNC1 [Compound 818]	< 100 nM	< 10 nM	–	–
CCO[C@@]1(c2ccc(-c3cc4c(N5CCN(C(=O)OC6COC6)CC5)ccnn4c3)nc2)CCCNC1 [Compound 819]	< 100 nM	< 10 nM	–	–
CCOC(=O)N1CCN(c2ccnn3cc(-c4ccc(C5(OC)CCN(C(C)C)CC5)cn4)cc23)CC1 [Compound 820]	< 100 nM	< 10 nM	–	–
CCOC1(c2ccc(-c3cc4c(N5CCN(C(=O)OC6COC6)CC5)ccnn4c3)nc2)CCOCC1 [Compound 821]	< 100 nM	< 10 nM	–	–
CC(C)NC(=O)N1CCN(c2ccnn3cc(-c4ccc(C5(C(F)(F)F)CCNCC5)cc4)cc23)CC1 [Compound 823]	< 100 nM	< 10 nM	–	–
COCC1(c2ccc(-c3cc4c(N5CCN(C(=O)C6CC6)CC5)ccnn4c3)cc2)CCN(C(C)C)CC1 [Compound 824]	< 100 nM	< 10 nM	–	–
CC(C)N1CCC[C@@H](c2ccc(-c3cc4c(N5CCN(C(=O)OC6(C)COC6)CC5)ccnn4c3)cc2)C1 [Compound 827]	100 to 500 nM	< 10 nM	–	–
CC1OCC1OC(=O)N1CCN(c2ccnn3cc(-c4ccc([C@@H]5CCCN(C(C)C)C5)cc4)cc23)CC1 (some centres unmarked) [Compound 828]	100 to 500 nM	< 10 nM	–	–

From US10233186B2, “Inhibitors of activin receptor-like kinase” (BLUEPRINT MEDICINES CORPORATION, priority 2016, dated 2019)
